Data taken from PubChem BioAssay (NCI).
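GI50: concentration for 50% inhibition of growth. At the TGI there is no net growth.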

Legend:
Experiment in all cases: inhibition of tumour cell growth, NCI panel, 384-well format
[1] = system: KM12 colon
[2] = system: SK-OV-3 ovarian
[3] = system: PC-3 prostate
[4] = system: NCI-H522 lung
[5] = system: SNB-75 CNS
[6] = system: A498 renal
[7] = system: SF-295 CNS
[8] = system: DU-145 prostate
[9] = system: NCI/ADR-RES ovarian
[10] = system: IGROV1 ovarian
[11] = system: MDA-MB-435 melanoma
[12] = system: HCT-15 colon
[13] = system: EKVX NSCLC
[14] = system: OVCAR-5 ovarian
[15] = system: HL-60(TB) leukemia
[16] = system: OVCAR-4 ovarian
[17] = system: CAKI-1 renal
[18] = system: RPMI-8226 leukemia
[19] = system: MDA-MB-468 breast
[20] = system: TK-10 renal
[21] = system: T-47D breast
[22] = system: HOP-62 NSCLC
[23] = system: SK-MEL-28 melanoma
[24] = system: SF-539 CNS
[25] = system: M14 melanoma
[26] = system: UACC-62 melanoma
[27] = system: HS 578T breast
[28] = system: CCRF-CEM leukemia
[29] = system: RXF 393 renal
[30] = system: K-562 leukemia
[31] = system: OVCAR-8 ovarian
[32] = system: NCI-H23 lung
[33] = system: LOX IMVI melanoma
[34] = system: MDA-MB-231 breast
[35] = system: HCT-116 colon
[36] = system: SNB-19 CNS
[37] = system: A549 NSCLC
[38] = system: SK-MEL-2 melanoma
[39] = system: HOP-92 NSCLC
[40] = system: MALME-3M melanoma
[41] = system: NCI-H322M lung
[42] = system: NCI-H226 lung
[43] = system: SW-620 colon
[44] = system: SN12C renal
[45] = system: UO-31 renal
[46] = system: MCF7 breast
[47] = system: HT29 colon
[48] = system: UACC-257 melanoma
[49] = system: MOLT-4 leukemia
[50] = system: OVCAR-3 ovarian
[51] = system: U251 glioblastoma
[52] = system: ACHN renal
[53] = system: SF-268 CNS
[54] = system: 786-0 renal
[55] = system: BT-549 breast
[56] = system: NCI-H460 NSCLC
[57] = system: COLO 205 colon
[58] = system: SK-MEL-5 melanoma
[59] = system: SR leukemia
[60] = system: HCC-2998 colon

CC(C)Cn1cnc2c(N)nc3ccccc3c21
GI50 [1]: > 100 µM | TGI [1]: > 100 µM | GI50 [2]: > 100 µM | TGI [2]: > 100 µM | GI50 [3]: > 100 µM | TGI [3]: > 100 µM | GI50 [4]: > 100 µM | TGI [4]: > 100 µM | GI50 [5]: > 100 µM | TGI [5]: > 100 µM | GI50 [6]: > 100 µM | TGI [6]: > 100 µM | GI50 [7]: > 100 µM | TGI [7]: > 100 µM | GI50 [8]: > 100 µM | TGI [8]: > 100 µM | GI50 [9]: > 100 µM | TGI [9]: > 100 µM | GI50 [10]: > 100 µM | TGI [10]: > 100 µM | GI50 [11]: > 100 µM | TGI [11]: > 100 µM | GI50 [12]: > 100 µM | TGI [12]: > 100 µM | GI50 [13]: 67.9 µM | TGI [13]: > 100 µM | GI50 [14]: > 100 µM | TGI [14]: > 100 µM | GI50 [15]: > 100 µM | TGI [15]: > 100 µM | GI50 [16]: > 100 µM | TGI [16]: > 100 µM | GI50 [17]: > 100 µM | TGI [17]: > 100 µM | GI50 [18]: > 100 µM | TGI [18]: > 100 µM | GI50 [19]: > 100 µM | TGI [19]: > 100 µM | GI50 [20]: > 100 µM | TGI [20]: > 100 µM | GI50 [21]: > 100 µM | TGI [21]: > 100 µM | GI50 [22]: > 100 µM | TGI [22]: > 100 µM | GI50 [23]: > 100 µM | TGI [23]: > 100 µM | GI50 [24]: > 100 µM | TGI [24]: > 100 µM | GI50 [25]: > 100 µM | TGI [25]: > 100 µM | GI50 [26]: > 100 µM | TGI [26]: > 100 µM | GI50 [27]: > 100 µM | TGI [27]: > 100 µM | GI50 [28]: > 100 µM | TGI [28]: > 100 µM | GI50 [29]: > 100 µM | TGI [29]: > 100 µM | GI50 [30]: > 100 µM | TGI [30]: > 100 µM | GI50 [31]: > 100 µM | TGI [31]: > 100 µM | GI50 [32]: > 100 µM | TGI [32]: > 100 µM | GI50 [33]: > 100 µM | TGI [33]: > 100 µM | GI50 [34]: > 100 µM | TGI [34]: > 100 µM | GI50 [35]: > 100 µM | TGI [35]: > 100 µM | GI50 [36]: > 100 µM | TGI [36]: > 100 µM | GI50 [37]: > 100 µM | TGI [37]: > 100 µM | GI50 [38]: > 100 µM | TGI [38]: > 100 µM | GI50 [39]: > 100 µM | TGI [39]: > 100 µM | GI50 [40]: > 100 µM | TGI [40]: > 100 µM | GI50 [41]: > 100 µM | TGI [41]: > 100 µM | GI50 [42]: > 100 µM | TGI [42]: > 100 µM | GI50 [43]: > 100 µM | TGI [43]: > 100 µM | GI50 [44]: > 100 µM | TGI [44]: > 100 µM | GI50 [45]: > 100 µM | TGI [45]: > 100 µM | GI50 [46]: > 100 µM | TGI [46]: > 100 µM | GI50 [47]: > 100 µM | TGI [47]: > 100 µM | GI50 [48]: > 100 µM | TGI [48]: > 100 µM | GI50 [49]: > 100 µM | TGI [49]: > 100 µM | GI50 [50]: > 100 µM | TGI [50]: > 100 µM | GI50 [51]: > 100 µM | TGI [51]: > 100 µM | GI50 [52]: > 100 µM | TGI [52]: > 100 µM | GI50 [53]: > 100 µM | TGI [53]: > 100 µM | GI50 [54]: > 100 µM | TGI [54]: > 100 µM | GI50 [55]: > 100 µM | TGI [55]: > 100 µM

CN(C)CCN1C(=O)c2cccc3cc(N)cc(c23)C1=O
GI50 [1]: 2.85 µM | TGI [1]: 14.8 µM | GI50 [2]: 2.12 µM | TGI [2]: 6.21 µM | GI50 [3]: 3.49 µM | TGI [3]: 11.3 µM | GI50 [4]: 1.34 µM | TGI [4]: 3.03 µM | GI50 [5]: 1.35 µM | TGI [5]: 4.62 µM | GI50 [6]: 1.26 µM | TGI [6]: 4.62 µM | GI50 [7]: 2.77 µM | TGI [7]: 12.1 µM | GI50 [8]: 2.28 µM | TGI [8]: 14.2 µM | GI50 [9]: 2.8 µM | TGI [9]: 7.79 µM | GI50 [10]: 3.07 µM | TGI [10]: 16.5 µM | GI50 [11]: 3.44 µM | TGI [11]: 12 µM | GI50 [12]: 2.56 µM | TGI [12]: 8.07 µM | GI50 [13]: 4.87 µM | TGI [13]: 19.6 µM | GI50 [14]: 2.46 µM | TGI [14]: 6.66 µM | GI50 [15]: 1.09 µM | TGI [15]: 2.35 µM | GI50 [16]: 2.62 µM | TGI [16]: 5.94 µM | GI50 [17]: 2.2 µM | TGI [17]: 6.36 µM | GI50 [18]: 1.4 µM | TGI [18]: 2.82 µM | GI50 [56]: 0.791 µM | TGI [56]: 2.27 µM | GI50 [19]: 1.88 µM | TGI [19]: 4.73 µM | GI50 [20]: 2.34 µM | TGI [20]: 7.61 µM | GI50 [21]: 2.73 µM | TGI [21]: 6.62 µM | GI50 [22]: 1.5 µM | TGI [22]: 3.65 µM | GI50 [57]: 1.98 µM | TGI [57]: 5.32 µM | GI50 [58]: 1.96 µM | TGI [58]: 3.53 µM | GI50 [23]: 4.01 µM | TGI [23]: 8.86 µM | GI50 [24]: 2.22 µM | TGI [24]: 6.64 µM | GI50 [25]: 2.72 µM | TGI [25]: 7.79 µM | GI50 [26]: 1.85 µM | TGI [26]: 3.61 µM | GI50 [27]: 1.42 µM | TGI [27]: 5.1 µM | GI50 [28]: 1 µM | TGI [28]: 2.19 µM | GI50 [29]: 2.47 µM | TGI [29]: 6.06 µM | GI50 [31]: 1.8 µM | TGI [31]: 3.63 µM | GI50 [32]: 2.45 µM | TGI [32]: 5.59 µM | GI50 [34]: 2.03 µM | TGI [34]: 5.55 µM | GI50 [36]: 2.16 µM | TGI [36]: 6.75 µM | GI50 [37]: 1.17 µM | TGI [37]: 3.64 µM | GI50 [38]: 4.1 µM | TGI [38]: 6.11 µM | GI50 [39]: 2.49 µM | TGI [39]: 6.89 µM | GI50 [40]: 2.2 µM | TGI [40]: 4.92 µM | GI50 [41]: 4.51 µM | TGI [41]: 18.2 µM | GI50 [42]: 2.02 µM | TGI [42]: 4.05 µM | GI50 [59]: 1.38 µM | TGI [59]: 2.69 µM | GI50 [43]: 3.12 µM | TGI [43]: 12.1 µM | GI50 [44]: 2.53 µM | TGI [44]: 11.4 µM | GI50 [46]: 2.92 µM | TGI [46]: 16.3 µM | GI50 [47]: 2.5 µM | TGI [47]: 6.43 µM | GI50 [48]: 2.68 µM | TGI [48]: 6.03 µM | GI50 [49]: 0.242 µM | TGI [49]: 0.572 µM | GI50 [50]: 4.01 µM | TGI [50]: 14 µM | GI50 [60]: 2.01 µM | TGI [60]: 5.47 µM | GI50 [51]: 2.38 µM | TGI [51]: 5.62 µM | GI50 [52]: 2.31 µM | TGI [52]: 4.44 µM | GI50 [53]: 3.06 µM | TGI [53]: 8.24 µM | GI50 [54]: 3.13 µM | TGI [54]: 13.5 µM | GI50 [55]: 2.87 µM | TGI [55]: 7.03 µM
